Where two headings read alike, the source gives them in different places.
Assays:
[1] = test system: L. donovani HU3 strain in mouse peritoneal macrophages; test: Assay for proliferation of Leishmania parasites in mouse peritoneal macrophages; assay type: cell-based, Leishmania donovani; conditions: Leishmania donovani, Peritoneal macrophage, read-out: L. donavani Macrophage EC50
Excerpt: Assay for Proliferation of Leishmania Parasites
The activity of a compound according to the present invention for inhibition of parasitemai can be assessed by the parasite proliferation assay. The assay measures the increase in the parasite number in the assayed plate well using a DNA intercalating dye, SYBR Green I® dye (INVITROGEN) to stain Leishmania cell nuclei. It is understood that the assays illustrate the invention without in any way limiting the scope of the invention.
L. donovani HU3 strain is propagated by infecting BALB/c mice through tail vein injection with 10^7 Leishmania parasites. Infected mice are allowed to develop infection during 9-11 weeks post-infection. During this time, the parasites accumulate in the infected mouse spleens to large numbers, and the infected mice serve as the source of parasites for the in vitro measurement of compound efficacies. To assay a compound for anti-leishmanial activity, peritoneal macrophages isolated from non-infected BALB/c mice are seeded into 384-well plates at density 2×10^4 macrophages per well in […] of medium (RPMI 1640, 10% […], 10 mM HEPES, 1 mM sodium pyruvate, 1% Pen/Strep). Subsequently, the seeded plates are placed into an incubator set to maintain 37° C. temperature and atmosphere with 5% CO2. The next day, Leishmania parasites are isolated from the spleens of mice infected for 9-11 weeks and 4×10^5 isolated parasites in […] of the above media are added to each plate well. Plates are then returned into incubators and infection is allowed to proceed for 24 hours. After the infection of macrophages is completed, […] of compounds of the invention in the above medium, which also contains 5% DMSO, are added to plate wells containing infected macrophages. At the same time control compounds (miltefosine and amphotericin B) and DMSO are added to plates to serve as the positive and negative controls, respectively. After the compound addition, the plates are returned into incubator and cells infected with parasites are cultured for 5 days. At the end of cultivation, […] of 8% paraformaldehyde is added to plate wells and incubated for 15 min at room temperature. Following the incubation, the paraformaldehyde from plate wells is aspirated, and […] of PBS containing 0.2% Triton X-100 is added to wells. After 15 min incubation, the solution is aspirated from wells again, and replaced with SybrGreen Dye solution in PBS (1:125,000 dilution). Infected cells are imaged with Evotec Opera high-content microscope, and the number of parasites in well is determined by counting parasite nuclei visualized by staining with SybrGreen dye. The percentage inhibition of 50%, EC50, is calculated for each compound.
The inhibitory efficacy of the compounds of the invention in delaying the proliferation of L. donovani in mouse peritoneal macrophages is provided in Table I, infra.

[2] = test system: Leishmania donovani axenic amastigote parasites; test: Leishmania donovani axenic amastigote proliferation assay; assay type: cell-based
Description: Leishmania Donovani Axenic Amastigote Proliferation Assay
Leishmania donovani axenic amastigote parasites are grown at 37° C., 5% CO2 in media made of RPMI 1640, 4 mM L-glutamine, 20% heat inactivated FBS, 100 units/ml of penicillin and 100 μg/ml of streptomycin, 23 μM Folic Acid, 100 μM Adenosine, 22 mM D-glucose, 25 mM MES. The pH of media is adjusted to 5.5 at 37° C. using HCl. 20 μL of media is first dispensed into 384 well plates and 100 nL of the compounds of invention in DMSO are added to the plate wells. At the same time control compounds and DMSO are added to plates to serve as the positive and negative controls, respectively. 40 μL of parasite culture (9600 parasites) are then added to the plate wells. The plates are then placed into incubators. After 2 day incubation, 20 μL of Cell TiterGlo (Promega) is added to the plate wells. The luminescence signal of each well is measured using the Envision reader (Perkin Elmer). The percentage inhibition of 50%, EC50, is calculated for each of the compounds.

[3] = axenic amastigotes in vitro, read-out: L. donovani amastigotes EC50

SMILES	EC50 [1] [µM]	EC50 [2, 3] [µM]	EC50 ([2]; 48 h, L. donovani axenic amastigotes, 2 day incubation, Cell TiterGlo luminescence, read-out: EC50) [µM]
Cc1cnc2nc(-c3cc(NC(=O)Cc4cc(C)no4)ccc3Cl)[nH]c2c1 [Compound 88]	> 50	> 25	–
Cc1cnc2nc(-c3cc(NC(=O)c4ccc(F)o4)ccc3Cl)[nH]c2c1 [Compound 90]	8	1.88	–
Cc1cnc2nc(-c3cc(NC(=O)c4ccns4)ccc3Cl)[nH]c2c1 [Compound 91]	5.6	3.2	–
Cc1cnc2nc(-c3cc(NC(=O)c4ccnnc4)ccc3Cl)[nH]c2c1 [Compound 92]	> 50	> 20	–
CCOc1cc(C(=O)Nc2ccc(Cl)c(-c3nc4ncc(C)cc4[nH]3)c2)ccn1 [Compound 93]	> 35.5	> 25	–
Cc1cnc2nc(-c3cc(NC(=O)c4ccc(CN(C)C)o4)ccc3Cl)[nH]c2c1 [Compound 94]	4.9	> 25	–
Cc1cnc2nc(-c3cc(NC(=O)c4cncc(C#N)c4)ccc3Cl)[nH]c2c1 [Compound 101]	> 50	13.5	–
Cc1cncc(C(=O)Nc2ccc(Cl)c(-c3nc4ncc(C)cc4[nH]3)c2)c1 [Compound 102]	11.7	16.1	–
Cc1cnc2nc(-c3cc(NC(=O)C4CCO4)ccc3Cl)[nH]c2c1 (stereo not drawn) [Compound 103]	> 50	> 25	–
Cc1cnc2nc(-c3cc(NC(=O)c4ncco4)ccc3Cl)[nH]c2c1 [Compound 104]	> 50	> 25	–
Cc1cnc2nc(-c3cc(NC(=O)c4c(C)noc4C)ccc3Cl)[nH]c2c1 [Compound 105]	> 50	> 25	–
Cc1cnc2nc(-c3cc(NC(=O)c4cncc(Cl)n4)ccc3Cl)[nH]c2c1 [Compound 127]	4.8	1.2	–
COc1cc(C(=O)Nc2ccc(Cl)c(-c3nc4ncc(C)cc4[nH]3)c2)ccn1 [Compound 129]	27.4	> 25	–
Cc1cnc2nc(-c3cc(NC(=O)c4occc4C)ccc3Cl)[nH]c2c1 [Compound 130]	15.7	2.01	–
Cc1cnc2nc(-c3cc(NC(=O)CCCN4CCOCC4)ccc3Cl)[nH]c2c1 [Compound 132]	> 50	> 25	–
Cc1cnc2nc(-c3cc(NC(=O)c4ccc(S(C)(=O)=O)nc4)ccc3Cl)[nH]c2c1 [Compound 136]	> 50	> 25	–
CSc1nccc(C(=O)Nc2ccc(Cl)c(-c3nc4ncc(C)cc4[nH]3)c2)n1 [Compound 137]	15.9	> 25	–
Cc1cnc2nc(-c3cc(NC(=O)c4ccc(C(F)(F)F)cc4)ccc3Cl)[nH]c2c1 [Compound 153]	14.9	> 25	–
Cc1cnc2nc(-c3cc(NC(=O)c4ccnc([S+](C)[O-])n4)ccc3Cl)[nH]c2c1 (stereo not drawn) [Compound 154]	> 50	> 24.1	–
Cc1cnc2nc(-c3cc(NC(=O)c4nc(C)oc4C(F)(F)F)ccc3Cl)[nH]c2c1 [Compound 176]	> 50	> 25	–
Cc1cnc2nc(-c3cc(NC(=O)C(O)c4ccc(C(F)(F)F)cc4)ccc3Cl)[nH]c2c1 (stereo not drawn) [Compound 182]	> 50	> 25	–
Cc1cnc2nc(-c3cc(NC(=O)CO)ccc3Cl)[nH]c2c1 [Compound 183]	> 50	> 25	–
Cc1cnc2nc(-c3cc(NC(=O)c4ccnc(C)c4)ccc3Cl)[nH]c2c1 [Compound 188]	11.6	2.26	–
Cc1cnc2nc(-c3cc(NC(=O)c4ccnc(C)c4C)ccc3Cl)[nH]c2c1 [Compound 189]	> 28.9	> 25	–
Cc1cnc2nc(-c3cc(NC(=O)c4ccc(OC(F)(F)F)cc4)ccc3Cl)[nH]c2c1 [Compound 210]	> 37.7	> 22	–

SMILES	EC50 [1] [µM]	EC50 [2, 3] [µM]	EC50 ([2]; 48 h, L. donovani axenic amastigotes, 2 day incubation, Cell TiterGlo luminescence, read-out: EC50) [µM]
COc1ccc(C(=O)Nc2ccc(Cl)c(-c3nc4ncc(C)cc4[nH]3)c2)cc1 [Compound 211]	> 27.9	> 22.8	–
[2H]C([2H])([2H])C([2H])([2H])OC(=O)Nc1ccc(Cl)c(-c2nc3ncc(C)cc3[nH]2)c1 [Compound 215]	18.1	13.3	–
Cc1cnc2nc(-c3cc(NC(=O)N4CC[C@@H](F)C4)ccc3Cl)[nH]c2c1 [Compound 234]	9.7	2.03	–
Cc1cnc2nc(-c3cc(NC(=O)N4CC[C@H](F)C4)ccc3Cl)[nH]c2c1 [Compound 235]	8.8	3.5	–
Cc1cnc2nc(-c3cc(NC(=O)Nc4ccc(C(F)(F)F)cc4)ccc3Cl)[nH]c2c1 [Compound 248]	23.1	> 25	–
Cc1cnc2nc(-c3cc(NC(=O)CCN)ccc3F)[nH]c2c1 [Compound 268]	> 50	> 25	–
Cc1cnc2nc(-c3cc(NC(=O)c4ccc(OCCN(C)C)cc4)ccc3F)[nH]c2c1 [Compound 269]	> 50	> 25	–
Cc1cnc2nc(-c3cc(NC(=O)c4ccno4)ccc3F)[nH]c2c1 [Compound 270]	> 50	20	–
Cc1cnc2nc(-c3cc(NC(=O)[C@H]4C[C@@H](O)CN4)ccc3F)[nH]c2c1 [Compound 271]	> 50	> 25	–
CC(=O)Nc1ccc(F)c(-c2nc3ncc(C)cc3[nH]2)c1 [Compound 272]	> 50	> 25	–
Cc1cnc2nc(-c3cc(NC(=O)[C@@H]4CCCN4)ccc3F)[nH]c2c1 [Compound 273]	> 50	> 25	–
Cc1cnc2nc(-c3cc(NC(=O)c4cc5ccccn5n4)ccc3F)[nH]c2c1 [Compound 274]	26.7	17	–
Cc1cnc2nc(-c3cc(NC(=O)CCCN(C)C)ccc3F)[nH]c2c1 [Compound 275]	> 50	> 25	–
CN(C)Cc1ccc(C(=O)Nc2ccc(Cl)c(-c3nc4ncc(C(F)(F)F)cc4[nH]3)c2)o1 [Compound 277]	15.2	> 25	–
O=C(Nc1ccc(Cl)c(-c2nc3ncc(C(F)(F)F)cc3[nH]2)c1)c1ccccc1Cl [Compound 278]	3.8	> 25	–
N#Cc1ccc(C(=O)Nc2ccc(Cl)c(-c3nc4ncc(C(F)(F)F)cc4[nH]3)c2)o1 [Compound 281]	6.3	1.98	–
O=C(Nc1ccc(Cl)c(-c2nc3ncc(C(F)(F)F)cc3[nH]2)c1)c1cncc(F)c1 [Compound 283]	11.4	4	–
O=C(Nc1ccc(Cl)c(-c2nc3ncc(C(F)(F)F)cc3[nH]2)c1)c1ccc(F)o1 [Compound 284]	4.1	0.7	–
O=C(Nc1ccc(Cl)c(-c2nc3ncc(C(F)(F)F)cc3[nH]2)c1)c1cnccn1 [Compound 285]	5	0.73	–
CC(C)OC(=O)Nc1ccc(Cl)c(-c2nc3ncc(C#N)cc3n2C(=O)OC(C)C)c1 [Compound 288]	0.13	1.59	–
CCOC(=O)Nc1ccc(Cl)c(-c2nc3ncc(C#N)cc3[nH]2)c1 [Compound 289]	8.1	4.2	–
COC(=O)Nc1ccc(Cl)c(-c2nc3ncc(C#N)cc3[nH]2)c1 [Compound 290]	17.4	15.6	–
CNc1ccc(-c2cnc3nc(-c4cc(NC(=O)N5CCCC5)ccc4Cl)[nH]c3c2)cc1 [Compound 292, N-(4-chloro-3-{6-[4-(methylamino)phenyl]-1H-imidazo[4,5-b]pyridin-2-yl}phenyl)pyrrolidine-1-carboxamide]	0.17	0.08	~0.08
O=C(Nc1ccc(Cl)c(-c2nc3ncc(-c4ccc(F)cc4)cc3[nH]2)c1)N1CCCC1 [Compound 293]	2.47	0.38	–
